Measurements from patent US11912723B2, “KRAS modulators and uses thereof” (Quanta Therapeutics, Inc., priority 2022, dated 2024).

Columns and labels:
[1] = biological target: T1, GST-tagged KRAS G12D (2-169) (Homo sapiens, UniProt P01116, G12D); assay: Nucleotide exchange assay (NEA), HTRF of SOS-mediated GTP-DY-647P1 binding; type: biochemical; conditions: 5 nM GST-KRAS G12D, 20 nM SOScat, 150 nM GTP; compound 1 h at RT
T1 construct: GST-tagged KRAS^G12D (2-169, Reaction Biology, MSC-11-539); purchased Reaction Biology MSC-11-539 (KRAS G12D); MSC-11-502 (SOS1cat)
Excerpt: This activity is tightly regulated by GTPase activating proteins (GAPs) and guanine nucleotide exchange factors (GEFs). GEFs, such as SOS1/2, activate Ras proteins by exchanging GDP for GTP, thus returning Ras to its active conformation (Simanshu, Nissley, & McCormick, 2017). […] Homogenous time resolved fluorescence (HTRF) was used to detect SOS-mediated binding of a fluorescent GTP analog, GTP-DY-647P1 (Jena Biosciences NU-820-647P1) to GST-tagged KRAS^G12D (2-169, Reaction Biology, MSC-11-539).
GST-tagged KRAS^G12D (2-169) and anti-GST MAb Tb Cryptate Gold (CisBio 61GSTTLB) were diluted into assay buffer (20 mM HEPES, pH 7.3, 150 mM NaCl, 5 mM MgCl2, 0.05% BSA 0.0025% NP40, 1 mM DTT) to prepare a 2.5× donor solution. 5× compound was added to the protein mixture and incubated for 1 h at RT. 2.5× acceptor solution containing SOS1cat (564-1049, Reaction Biology MSC-11-502) and GTP-DY-647P1 were then added to the donor KRAS mixture such that the final concentration of the reaction contained 5 nM GST-tagged KRAS^G12D (2-169), 20 nM SOScat, and 150 nM GTP. The reaction was monitored using at RT with the Envision multimode plate reader (Ex/Em 337/665, […]) up to 90 minutes at 5 minute intervals. Data was blanked to reactions without SOS1 and % inhibition was calculated such that DMSO only=0% and blank=100%. Curve fitting was done using a 4 parameter fit. NEA KRAS G12D ID50 (uM) values of selected compounds are depicted in Table 2 with compounds having a value<0.01 uM as ++++; >0.01 uM to 0.1 uM as +++; >0.1 uM to 1 uM as ++; >1 uM to 20 uM as +; and >20 uM as NA.

[2] = biological target: T2, KRAS G12D/RAF1 (Homo sapiens, UniProt P01116, G12D); assay: Protein-protein interaction (PPI) HTRF assay KRAS G12D/RAF1; type: binding; conditions: KRAS G12D/RAF1, GppNHp-loaded KRAS; 30 minutes pre-incubation
T2 construct: KRAS (1-169) proteins were expressed in E. coli at 18° C; His6-MBP (N, cleaved yes); made in house; host or cells: E. coli
Experimental: Biotinylated KRAS wt and KRAS G12DNV proteins were expressed and purified in conditions similar to those previously reported (Tran, et al., 2021) (Zhang, et al., 2020). Briefly, KRAS (1-169) proteins were expressed in E. coli at 18° C. with an upstream TEV cleavage site (ENLFYQS) followed an Avi tag sequence ([…]). KIRAS expression constructs contained both a His6 and maltose-binding protein (MBP) tags at the N-terminus for Ni-NTA column purification prior to overnight TEV cleavage and MBP column purification. The avi-tagged NRAS expression construct contained both a His6 tag and SUMO cleavage sige at the N-terminus for Ni-NTA column purification followed by His-ULP1 digestion overnight. All avi-tagged RAS proteins were dialyzed into buffer containing ATP, biotin, and BirA followed by purification over a second Ni-NTA column and then run over a size exclusion HiLoad™ 26/600 Superdex™ column in 20 mM HEPES, pH 7.5, 300 mM NaCl, 5 mM MgCl2, and 1 mM TCEP. Fractions containing the protein of interest were pooled, concentrated, and confirmed by intact mass spectrometry. To prepare ‘GTP’ loaded KRAS and NRAS, biotinylated KRAS or NRAS was nucleotide exchanged from GDP-bound protein to GppNHp-bound (Jena Biosciences, NU-401-50) protein in the presence of alkaline phosphatase and excess GppNHp as previously described and the resulting nucleotide content was confirmed by HPLC reverse phase analytical chromatography (Donohue, et al., 2019) (Tran, et al., 2021).
His-tagged RAF1 (52-131) was similarly expressed in E. coli at 18° C. overnight with an upstream TEV cleavage site. His-tagged RAF1 expression construct contained both a His6 and MBP tags at the N-terminus for Ni-NTA column purification followed by MBP-tagged TEV digestion overnight. RAF1 protein samples were further purified over a MBP column followed by a Ni-NTA column and a second MBP column. The fractions containing the protein of interest were pooled, concentrated, and further purified over a HiLoad™ 16/600 Superdex™ 75 pg size exclusion column into 20 mM HEPES, pH8.0, 200 mM NaCl, 5 mM TCEP.
When RAS proteins are in the active GTP-bound conformation, they bind the effector protein RAF1 at the N-terminus Ras-binding domain (RBD, residues 52-131) (Tran, et al., 2021). Homogenous time resolved fluorescence (HTRF) was used to monitor the interaction between wt or mutant KRAS and RAF1 or wt NRAS and RAFT. Compounds were assayed in the presence of KRAS G12D/V and RAF1 versus wt KRAS to assess activity against mutant and w.t. KRAS. Similarly, compounds were then assayed in the presence of w.t. NRAS and RAF1 to assess RAS isoform selectivity. In all assay formats, His-tagged RAF1 protein was incubated with the HTRF donor, anti-6His Tb Cryptate gold (Cisbio 61DB10RDF), and biotinylated RAS proteins were incubated with the HTRF acceptor, streptavidin-d2 (CisBio 610SADLA). The intensity of the fluorescence signal emitted is proportional to binding between the two proteins. The donor solution was prepared by mixing 16 nM His-tagged RAF1 in protein dilution buffer with 1:100 anti-6His Tb cryptate in PPI-Terbium detection buffer. 16 nM biotinylated RAS protein was diluted into protein dilution buffer (50 mM Tris-HCl pH 7.5, 150 mM NaCl, 0.1 mM MgCl2, 1 mM TCEP, 0.005% Tween20) and mixed with 1:2000 Streptavidin-d2 diluted in PPI-Terbium detection buffer (CisBio 61DB10RDF). 50× compound in DMSO was mixed with 16 nM KRAS-acceptor solution and incubated for 30 minutes at room temperature. After compound pre-incubation with KRAS, the RAF1 donor solution was added to the KRAS-acceptor solution and incubated for 1 hour at room temperature. The fluorescence signal emitted was monitored at 665 nm and 615 nm using an Envision multimode plate reader. The HTRF ratio (665/615) was calculated and normalized to 0% inhibition in the absence of compound and 100% inhibition in the presence of untagged RAF1 protein. […]

T1 sequence (P01116 2-169 isoform P01116-2 G12D): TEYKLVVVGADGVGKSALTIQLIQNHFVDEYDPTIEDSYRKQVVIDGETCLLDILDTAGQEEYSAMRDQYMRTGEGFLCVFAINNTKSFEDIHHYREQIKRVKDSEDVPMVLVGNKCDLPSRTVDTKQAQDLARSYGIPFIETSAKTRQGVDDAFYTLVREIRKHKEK
T2 sequence (P01116 1-169 isoform P01116-2 G12D): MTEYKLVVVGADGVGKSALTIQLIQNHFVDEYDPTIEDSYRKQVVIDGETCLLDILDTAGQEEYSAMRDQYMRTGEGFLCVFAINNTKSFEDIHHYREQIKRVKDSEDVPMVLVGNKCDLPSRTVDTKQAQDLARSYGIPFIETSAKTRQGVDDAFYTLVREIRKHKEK

Row | Structure (SMILES) | IC50 [1] [µM] | IC50 [2] [µM]
1 | O=C1NC(=O)C2(CCCN(c3nc(OC[C@@]45CCCN4C[C@H](F)C5)nc4c3COC3(CCc5ccc(O)cc53)C4)C2)N1 (mixture of isomers) [Compound 30, 9-[6′-hydroxy-2-[[rac-(2R,8S)-2-fluoro-1,2,3,5,6,7-hexahydropyrrolizin-8-yl]methoxy]spiro[5,8-dihydropyrano[4,3-d]pyrimidine-7,1′-indane]-4-yl]-1,3,9-triazaspiro[4.5]decane-2,4-dione] | 1 to 20 | > 100
2 | C[C@@]1(O)CCCN(c2nc(OC[C@@]34CCCN3C[C@H](F)C4)nc3c2COC2(CCc4c(Cl)cccc42)C3)C1 (single isomer, unassigned) [Compound 23A, (3R)-1-[(7*)-4′-chloro-2-[[(2R,8S)-2-fluoro-1,2,3,5,6,7-hexahydropyrrolizin-8-yl]methoxy]spiro[5,8-dihydropyrano[4,3-d]pyrimidine-7,1′-indane]-4-yl]-3-methyl-piperidin-3-ol] | 0.1 to 1 | > 100
3 | O=C1NC(=O)[C@]2(CCCN(c3nc(OC[C@@]45CCCN4C[C@H](F)C5)nc4c3COC3(CCCc5c(Cl)cc(O)cc53)C4)C2)N1 (single isomer, unassigned) [Compound 51B, (5R)-9-[(7*)-5′-chloro-2-[[(2R,8S)-2-fluoro-1,2,3,5,6,7-hexahydropyrrolizin-8-yl]methoxy]-7′-hydroxy-spiro[5,8-dihydropyrano[4,3-d]pyrimidine-7,1′-tetralin]-4-yl]-1,3,9-triazaspiro[4.5]decane-2,4-dione] | 0.01 to 0.1 | 10 to 100
4 | CN(C)C(=O)c1nn2c(c1Cl)CN(c1nc(OC[C@@]34CCCN3C[C@H](F)C4)nc3c1CN(C)[C@]1(CCCc4ccccc41)C3)CCC2 (single isomer, unassigned) [Compound 64B] | 0.1 to 1 | > 100
5 | F[C@H]1CN2CCC[C@@]2(COc2nc3c(c(N4C[C@H]5CC[C@@H](C4)N5)n2)COC2(C3)c3ccccc3-c3n[nH]cc32)C1 (stereo partly drawn) [Compound 3, 4′-[(1R,5S)-3,8-diazabicyclo[3.2.1]octan-3-yl]-2′-[[(2R,8S)-2-fluoro-1,2,3,5,6,7-hexahydropyrrolizin-8-yl]methoxy]spiro[2H-indeno[1,2-c]pyrazole-4,7′-5,8-dihydropyrano[4,3-d]pyrimidine]] | 1 to 20 | > 100
6 | Nc1ccc2c(c1)C1(CCC2)Cc2nc(OC[C@@]34CCCN3C[C@H](F)C4)nc(N3CCCC(O)CC3)c2CO1 (stereo partly drawn) [Compound 13, 1-[7′-amino-2-[[(2R,8S)-2-fluoro-1,2,3,5,6,7-hexahydropyrrolizin-8-yl]methoxy]spiro[5,8-dihydropyrano[4,3-d]pyrimidine-7,1′-tetralin]-4-yl]azepan-4-ol] | 1 to 20 | 10 to 100
7 | N#CCC1CCCN(c2nc(OC[C@@]34CCCN3C[C@H](F)C4)nc3c2COC2(CCc4c(Cl)cccc42)C3)CC1 (stereo partly drawn) [Compound 19, 2-(1-(4-chloro-2′-(((2R,7aS)-2-fluorotetrahydro-1H-pyrrolizin-7a(5H)-yl)methoxy)-2,3,5′,8′-tetrahydrospiro[indene-1,7′-pyrano[4,3-d]pyrimidin]-4′-yl)azepan-4-yl)acetonitrile] | 1 to 20 | > 100
8 | N#Cc1ccc2c(c1)C1(CCC2)Cc2nc(OC[C@@]34CCCN3C[C@H](F)C4)nc(N3CCCCCC3)c2CO1 (stereo partly drawn) [Compound 20, 4-(azepan-1-yl)-2-[[(2R,8S)-2-fluoro-1,2,3,5,6,7-hexahydropyrrolizin-8-yl]methoxy]spiro[5,8-dihydropyrano[4,3-d]pyrimidine-7,4′-tetralin]-6′-carbonitrile] | 1 to 20 | > 100
9 | F[C@H]1CN2CCC[C@@]2(COc2nc3c(c(N4CCCCCC4)n2)COC2(COCc4ccccc42)C3)C1 (stereo partly drawn) [Compound 25, 4-(azepan-1-yl)-2-[[(2R,8S)-2-fluoro-1,2,3,5,6,7-hexahydropyrrolizin-8-yl]methoxy]spiro[5,8-dihydropyrano[4,3-d]pyrimidine-7,4′-isochromane]] | 1 to 20 | > 100
10 | CN(C)C(=O)c1cc2n(n1)CCCN(c1nc(OC[C@@]34CCCN3C[C@H](F)C4)nc3c1CO[C@]1(CCc4c(Cl)cccc41)C3)C2 [Compound 27A, 5-[(7S)-4′-chloro-2-[[(2R,8S)-2-fluoro-1,2,3,5,6,7-hexahydropyrrolizin-8-yl]methoxy]spiro[5,8-dihydropyrano[4,3-d]pyrimidine-7,1′-indane]-4-yl]-N,N-dimethyl-4,6,7,8-tetrahydropyrazolo[1,5-a][1,4]diazepine-2-carboxamide] | 0.1 to 1 | > 100
11 | CONC(=O)c1cc2n(n1)CCCN(c1nc(OC[C@@]34CCCN3C[C@H](F)C4)nc3c1CO[C@@]1(CCc4c(Cl)cccc41)C3)C2 [Compound 31, N-methoxy-5-[(7S)-4′-chloro-2-[[(2R,8S)-2-fluoro-1,2,3,5,6,7-hexahydropyrrolizin-8-yl]methoxy]spiro[5,8-dihydropyrano[4,3-d]pyrimidine-7,1′-indane]-4-yl]-4,6,7,8-tetrahydropyrazolo[1,5-a][1,4]diazepine-2-carboxamide] | 0.01 to 0.1 | > 100
12 | CN(C)C(=O)c1cc2n(n1)CCCN(c1nc(OC[C@@]34CCCN3C[C@H](F)C4)nc3c1COC1(CCc4ccc(O)cc41)C3)C2 (stereo partly drawn) [Compound 32] | 0.01 to 0.1 | > 100
